Data published in patent publication US12630544B2, “Compound, α-synuclein aggregate binder, and use thereof” (NATIONAL INSTITUTES FOR QUANTUM SCIENCE AND TECHNOLOGY, priority 2020, dated 2026).

Columns and labels:
[1] = molecular target: T1, phosphorylated α-synuclein (Mus musculus, UniProt O55042); experiment: In vitro fluorescence microscope measurement, brain sections of α-synuclein fibril-inoculated mouse; conditions: 30 μM compound, 20% ethanol, 30 minutes; mouse brain section
T1 construct: from tissue; host or cells: brain of C57/BL/6 mouse inoculated in the striatum with recombinant (E. coli) mouse α-synuclein fibrils; sections or living animal
Description: First, mouse α-synuclein was expressed in and extracted from E. coli as a recombinant protein, and then incubated in vitro to form insoluble α-synuclein aggregates. The α-synuclein aggregates were then inoculated into the striatum of a mouse. […] Note that the inoculation of the α-synuclein aggregates into the striatum of the mouse was carried out in the following manner. First, hair on the head of a 9-week-old C57/BL/6 male mouse which had been anesthetized with 1.5% (v/v) isoflurane was removed, and the scalp was disinfected with isodine, followed by application of xylocaine and incision in the scalp to expose the skull. […]
The brain of this α-synuclein fibril-inoculated mouse was extracted, and then sections were prepared. The sections were analyzed by fluorescent staining. […] After the section was mounted in a mounting medium (VECTASHIELD H-1000), an image of an α-synuclein aggregate-enriched area on the section was obtained with use of a fluorescence microscope (DM4000 (excitation wavelength: 391 nm to 437 nm)). […] After the section was subjected to immunohistochemical staining with use of an anti-phosphorylated α-synuclein monoclonal antibody (pS129, abcam, ab59264) (1:1000) and then mounted in a mounting medium (VECTASHIELD H-1000), an image of the same area as above was obtained with use of a fluorescence microscope (DM4000 (excitation wavelength: 460 nm to 500 nm)). […]

α-synuclein aggregates = α-synuclein aggregates (Homo sapiens, UniProt P37840); experiment: In vitro fluorescence microscope measurement, amygdala sections of DLB patient brain; design: α-synuclein aggregates formed in the brain of the DLB patient; from tissue; host or cells: post-mortem human brain: amygdala of DLB patient (sections or homogenate); cerebellum of MSA patient; conditions: 30 μM test compound
Source text: Postmortem human brains were obtained in autopsies carried out with respect to a patient with dementia with Lewy bodies (DLB) and a patient with Alzheimer's disease (AD). In a cryostat (HM560, Carl Zeiss), frozen tissue from the DLB patient was sliced into sections each having a thickness of 20 μm. Brain tissue from the AD patient was fixed in 10% neutral buffered formalin, embedded in a paraffin block, and sliced into sections each having a thickness of 6 μm.
Postfixed fresh frozen sections of amygdala tissue obtained from the brain of the DLB patient and deparaffinized sections of formalin-fixed paraffin-embedded middle frontal gyrus tissue obtained from the brain of the AD patient were used. Each brain section and a 30 μM test compound were incubated in a 50% ethanol solution at room temperature for 30 minutes. Thereafter, the section was washed with a 50% ethanol solution for 5 minutes and with ultrapure water for 3 minutes. This washing was carried out twice. After the section was mounted in a mounting medium (VECTASHIELD H-1000, Vector Laboratories), an image of a lesion-enriched area on the section was obtained with use of a fluorescence microscope (DM4000, Leica, excitation wavelength: 391 nm to 437 nm). In FIG. 1, each arrowhead indicates fluorescence from the compound binding to α-synuclein aggregates in the brain of the DLB patient, each arrow indicates fluorescence from the compound binding to amyloid-β aggregates in the brain of the AD patient, and an asterisk indicates fluorescence from the compound binding to tau aggregates in the brain of the AD patient. The fluorescence intensities of lesion-enriched areas and lesion-free areas (background) were quantified with use of analysis software (Image J). Note that SPAL-T-05 and SPAL-T-06 were each used as the test compound. Note also that BF-227 (2-(2-[2-dimethylaminothiazol-5-yl]ethenyl)-6-(2-[fluoro]ethoxy)benzoxazole (catalog No.: NP039-0)) and PBB3 (2-((1E,3E)-4-(6-(methylamino)pyridin-3-yl)buta-1,3-dienyl)benzo[d]thiazol-6-ol) (catalog No.: NP039-0), each available from NARD INSTITUTE, LTD., were each used as a control compound.

CNc1cnc(C#C/C=C/c2nc3ccc(OCC(O)CF)cc3s2)cn1 (stereo not drawn) [SPAL-T-06, (E)-1-fluoro-3-((2-(4-(5-(methylamino)pyrazin-2-yl)but-1-en-3-yn-1-yl)benzo[d]thiazol-6-yl)oxy)propan-2-ol]
binding to lesion caused by phosphorylated α-synuclein (fluorescent staining, co-stained with pS129 antibody) [1]: bound to a lesion caused by phosphorylated α-synuclein
binding to α-synuclein aggregates formed in the brain of the DLB patient (fluorescence) (α-synuclein aggregates; 50% ethanol, room temperature, 30 minutes, amygdala sections): reactivity greater than that of PBB3
binding selectivity: α-synuclein aggregates (DLB brain) versus tau aggregates or amyloid-β aggregates (AD brain) (α-synuclein aggregates; fluorescence of lesion-enriched vs lesion-free areas): greater than binding of each of SPAL-T-06 and SPAL-T-05 to tau aggregates or amyloid-β aggregates
